Results as given in US6303577A, “Use of a peptide compound in the treatment of systemic lupus erythematosus” (Tecnogen S.C.p.A., priority 1998, dated 2001).

How the values were obtained:
[1] = in vitro; format: in vitro ADME, mouse; conditions: for remaining at 5 min / remaining at 20 min / remaining at 40 min / remaining at 1 h: mouse, serum
Procedure: The stability of the peptide compounds of formula (I) to proteolytic attack by proteases has been evaluated by High Performance Liquid Chromatography (HPLC).
Mouse sera were obtained by cutting a small section off tip of tail and collecting some blood drops. After collection, blood was incubated for 1 hour at 37° C. and then serum was removed from the clot by centrifugation at 1200 g for 20' at 4° C. Various amounts of peptide compounds of formula (I) were added to 50 μl of serum and the mixture was incubated at 37° C. for different periods of time. Afterwards, 2 μl of the reaction mixture were added to 50 μl of 0.1 M acetic acid in order to elute the peptide compound from serum immunoglobulins. Samples were then stored at -80° C. until use.
Analysis of samples was carried out on an Aquapore RP-8 column (30×2.1 mm I.D.), eluting the equilibrated column at a flow rate of 0.5 ml/min with a linear gradient of 0.1% trifluoracetic acid buffer containing increasing acetonitrile concentration from 5% to 60% in 35'. Elution was monitored by absorbance at 225 nm.

[2] = system: MRL/Ipr mice; experiment: Urine protein levels (dipstick) in mouse model of Systemic Lupus Erythematosus; format: in vivo; conditions: for Mice with proteinuria level >1 g/L (%): 1 mg i.p. twice a week from 7 weeks of age
Procedure: (§1) In vivo studies on the activity of the peptide compounds of formula (I) were carried out by using an experimental animal model of human Systemic Lupus Erythematosus. MRL/Ipr, NZB/NZW or BXSB denote mouse strains that spontaneously develop an autoimmune syndrome having notable similarities to human Systemic Lupus Erythematosus. The MRL-Ipr/Ipr strain is homozigotic for Ipr gene. The lpr mutation causes functional defects in the Fas Ag. Fas belongs to the TNF receptor family and mediates apoptosis (Watanabe-Fukunaga, R. et al., "Nature", 356, 314, 1992; Itoh, N., et al., "Cell", 66, 233, 1991; Murphy, E. D., "Immunological defects in Laboratory Animals", 2, 143, 1981; Steinberg, A. D., "Semin. Immunol.", 6, 55, 1994). Autoimmune disease in MRL/Ipr mice is characterized by autoantibody production, vasculitis, arthritis, and glomerulonephritis that is the major cause of death (Theofilopoulos, A. N., et al., "Adv. Immunol.", 37, 269, 1985; Cohen, P. L., et al., "Annu. Rev. Immunol.", 9, 243, 1991).
(§2) At 7 weeks of age, mice were treated twice a week with 1 mg of D-PAM, L-PAM or placebo […] administered intraperitoneally. The treatment was stopped at 30 weeks of age. Mice were observed daily for clinical signs of disease and for mortality and were bled every 2 weeks for determination of anti-DNA antibody production, while urine protein levels were determined on samples taken twice a week.
Urine protein levels were determined by colorimetric analysis using dipsticks (Combur 7, Boehringer Mannheim, n. cat. 185515) according to protocols from the manufacturer (Wang et al., "Proc. Natl. Acad. Sci. USA", 93, 8563-8568, 1996).

[3] = system: MRL/Ipr mice; experiment: Serum anti-DNA antibodies by ELISA in mouse model of Systemic Lupus Erythematosus; format: in vivo; conditions: 1 mg i.p. twice a week from 7 weeks of age
Procedure: as §1, §2
Standard ELISA assay to measure the serum levels of anti-DNA antibodies was performed as follow. Microtiter plates (Costar, Cat. No 3590) were coated with a 10 μg/ml DNA (Sigma Cat. No D-8899) solution (100 μl/well) in 0.01 M phosphate buffer (pH 8.0) and incubated over night at 4° C. After washing the microtiter plates ten times with a 50 mM phosphate, 150 mM NaCl pH 7.2 buffer (PBS) containing 0.05% Tween (PBS-T), the wells were saturated with 200 μl of PBS-T containing fetal calf serum (1%) heat-inactivated 1 hour at 56° C. (PBS-T-FCS), and incubated for 2 hours at room temperature, to block the uncoated plastic surface. Plates were then washed again with PBS-T, and filled with samples (100 μl/well) previously diluted with PBS-T-FCS. After incubation for 2 hours at room temperature and subsequent washing, wells were filled with 100 μl of horseradish peroxidase labeled goat anti-mouse polyvalent immunoglobulins (IgG, IgA, IgM) (Sigma, Cat. No A-0412) solution diluted 1000 fold with PBS-T-FCS. The plates were then left to stand for 1 hour at room temperature, washed ten times and then filled with 150 μl of ophenylenediamine dihydrochloride (Sigma Cat. No P-6912) chromogenic substrate solution freshly prepared according to protocols from the manufacturer. The color was allowed to develop for 30' and the adsorbance at 450 nm were determined with an ELISA plate reader (Labsystems Multiskan Bichromatic).

[4] = system: MRL/Ipr mice; experiment: Survival in mouse model of Systemic Lupus Erythematosus; format: in vivo; conditions: 1 mg i.p. twice a week from 7 weeks of age
Procedure: as §1, §2
Coincident with ameliorating the clinical signs of severe immune complex nephritis, a dramatic prolongation of survival was observed.

[5] = system: MRL/Ipr mice; experiment: Histopathologic examination of renal tissue; format: in vivo, mouse; conditions: hematoxylin and eosin, light microscope
Procedure: as §1
as §2, with “The treatment was stopped at 30 weeks of age.” left out, “week. […]” for “week.”

[6] = system: Balb/c mice; conditions: mouse, in vivo
Procedure: The ability of the peptide compounds of formula (I) to evoke an antibody response has been evaluated by immunizing two groups of four Balb/c mice with 100 μg of D-PAM or L-PAM respectively by i.p. injection. After the first immunization, the same immunogen was administered for two subsequent boosts, blood samples were collected from each animal for monitoring antibody titers by an ELISA assay as follow.
Polystyrene microtiter plates (Falcon Cat. No 3912) were coated with a 50 μg/ml D-PAM and L-PAM conjugated to BSA (100 μl/well) in 0.1 M sodium carbonate buffer (pH 8.5) and incubated over night at 4° C. After washing the microtiter plates ten times with a 50 mM phosphate, 150 mM NaCI pH 7.2 buffer (PBS), the wells were saturated with 200 μl of PBS containing bovine serum albumin (BSA, Sigma Cat. No A-9418) for 1 hour at 37° C., to block the uncoated plastic surface. Plates were then washed again with PBS containing 0.05% Tween 20 (PBS-T), and filled with samples (100 μl/well) previously diluted with PBS-T containing 1% BSA (PBS-T-B). […] The color was allowed to develop for 30' and absorbances were read at 405 nm with an ELISA plate reader (Labsystems Multiskan Bichromatic). […]

SMILES | remaining at 5 min [1] | remaining at 20 min [1] | remaining at 40 min [1] | remaining at 1 h [1] | Onset of severe proteinuria versus untreated animals (in words) ([2]; 1 mg i.p. twice a week) | Mice with proteinuria level >1 g/L (%) ([2]; time 8 weeks) | Mice with proteinuria level >1 g/L (%) ([2]; time 13 weeks) | Mice with proteinuria level >1 g/L (%) ([2]; time 18 weeks) | Mice with proteinuria level >1 g/L (%) ([2]; time 23 weeks) | Mice with proteinuria level >1 g/L (%) ([2]; time 28 weeks) | Ig Anti-DNA titer (O.D.) fold increase ([3]; time 8 weeks) | Ig Anti-DNA titer (O.D.) fold increase ([3]; time 10 weeks) | Ig Anti-DNA titer (O.D.) fold increase ([3]; time 14 weeks) | Ig Anti-DNA titer (O.D.) fold increase ([3]; time 16 weeks) | Ig Anti-DNA titer (O.D.) fold increase ([3]; time 18 weeks) | Survival rate (%) ([4]; time 15 weeks) | Survival rate (%) ([4]; time 20 weeks) | Survival rate (%) ([4]; time 25 weeks) | Survival rate (%) ([4]; time 30 weeks) | Glomerulonephropathic progression versus positive control group (in words) [5] | further results
C[C@H](O)[C@@H](NC(=O)[C@H](N)CCCNC(=N)N)C(=O)N[C@H](Cc1ccc(O)cc1)C(=O)NCCCC[C@H](NC(=O)[C@@H](Cc1ccc(O)cc1)NC(=O)[C@H](NC(=O)[C@H](N)CCCNC(=N)N)[C@H](C)O)C(=O)NCCCC[C@H](NC(=O)[C@H](CCCCNC(=O)[C@@H](Cc1ccc(O)cc1)NC(=O)[C@H](NC(=O)[C@H](N)CCCNC(=N)N)[C@H](C)O)NC(=O)[C@@H](Cc1ccc(O)cc1)NC(=O)[C@H](NC(=O)[C@H](N)CCCNC(=N)N)[C@H](C)O)C(=O)NCC(=O)O [D-PAM, (H2 N-D-Arg-D-Thr-D-Tyr-CO)4 -(Lys)2 -Lys-Gly-OH] | 83% | 73% | 68% | 63% | marked delay in the onset of severe proteinuria | 0% | 0% | 0% | 20% | 30% | 1.8 fold increase | 2.5 fold increase | 3.5 fold increase | 3.5 fold increase | 4.3 fold increase | 100% | 100% | 90% | 80% | evident reduction in the glomerulonephropathic progression | Stability to proteolytic attack (in words) [1]: more stable to proteolytic attack than L-PAM; Time until which treated mice did not develop proteinuria ([2]; 1 mg i.p. twice a week): 20 weeks; Antibody titer (A 405) [6]: 0.663 A 405
C[C@@H](O)[C@H](NC(=O)[C@@H](N)CCCNC(=N)N)C(=O)N[C@@H](Cc1ccc(O)cc1)C(=O)NCCCC[C@H](NC(=O)[C@H](Cc1ccc(O)cc1)NC(=O)[C@@H](NC(=O)[C@@H](N)CCCNC(=N)N)[C@@H](C)O)C(=O)NCCCC[C@H](NC(=O)[C@H](CCCCNC(=O)[C@H](Cc1ccc(O)cc1)NC(=O)[C@@H](NC(=O)[C@@H](N)CCCNC(=N)N)[C@@H](C)O)NC(=O)[C@H](Cc1ccc(O)cc1)NC(=O)[C@@H](NC(=O)[C@@H](N)CCCNC(=N)N)[C@@H](C)O)C(=O)NCC(=O)O [L-PAM, (H2 N-L-Arg-L-Thr-L-Tyr-CO)4 -(Lys)2 -Lys-Gly-OH] | 57% | 31% | 19% | 12% | marked delay in the onset of severe proteinuria | 0% | 0% | 10% | 50% | 60% | 1.8 fold increase | 2.5 fold increase | 3.6 fold increase | 3.6 fold increase | 4.5 fold increase | 100% | 90% | 50% | 40% | evident reduction in the glomerulonephropathic progression | Antibody titer (A 405) [6]: 0.462 A 405
